Measurements published in patent publication US20130303535A1, “NOVEL BICYCLIC HETEROCYCLIC COMPOUND” (priority 2008, published 2013).
Counter-ions that a name gives are not always drawn.

Target: TTX resistant Na channel of human SNS-expressing cell (SNS) (Homo sapiens, UniProt Q9Y5Y9)
Test: cell-based
Conditions: CHO-K1, compound concentration 12.5 μM; read-out: SNS inhibitory rate (%)

TTX resistant Na channel of human SNS-expressing cell (SNS), sequence (Q9Y5Y9 whole entry, looked up): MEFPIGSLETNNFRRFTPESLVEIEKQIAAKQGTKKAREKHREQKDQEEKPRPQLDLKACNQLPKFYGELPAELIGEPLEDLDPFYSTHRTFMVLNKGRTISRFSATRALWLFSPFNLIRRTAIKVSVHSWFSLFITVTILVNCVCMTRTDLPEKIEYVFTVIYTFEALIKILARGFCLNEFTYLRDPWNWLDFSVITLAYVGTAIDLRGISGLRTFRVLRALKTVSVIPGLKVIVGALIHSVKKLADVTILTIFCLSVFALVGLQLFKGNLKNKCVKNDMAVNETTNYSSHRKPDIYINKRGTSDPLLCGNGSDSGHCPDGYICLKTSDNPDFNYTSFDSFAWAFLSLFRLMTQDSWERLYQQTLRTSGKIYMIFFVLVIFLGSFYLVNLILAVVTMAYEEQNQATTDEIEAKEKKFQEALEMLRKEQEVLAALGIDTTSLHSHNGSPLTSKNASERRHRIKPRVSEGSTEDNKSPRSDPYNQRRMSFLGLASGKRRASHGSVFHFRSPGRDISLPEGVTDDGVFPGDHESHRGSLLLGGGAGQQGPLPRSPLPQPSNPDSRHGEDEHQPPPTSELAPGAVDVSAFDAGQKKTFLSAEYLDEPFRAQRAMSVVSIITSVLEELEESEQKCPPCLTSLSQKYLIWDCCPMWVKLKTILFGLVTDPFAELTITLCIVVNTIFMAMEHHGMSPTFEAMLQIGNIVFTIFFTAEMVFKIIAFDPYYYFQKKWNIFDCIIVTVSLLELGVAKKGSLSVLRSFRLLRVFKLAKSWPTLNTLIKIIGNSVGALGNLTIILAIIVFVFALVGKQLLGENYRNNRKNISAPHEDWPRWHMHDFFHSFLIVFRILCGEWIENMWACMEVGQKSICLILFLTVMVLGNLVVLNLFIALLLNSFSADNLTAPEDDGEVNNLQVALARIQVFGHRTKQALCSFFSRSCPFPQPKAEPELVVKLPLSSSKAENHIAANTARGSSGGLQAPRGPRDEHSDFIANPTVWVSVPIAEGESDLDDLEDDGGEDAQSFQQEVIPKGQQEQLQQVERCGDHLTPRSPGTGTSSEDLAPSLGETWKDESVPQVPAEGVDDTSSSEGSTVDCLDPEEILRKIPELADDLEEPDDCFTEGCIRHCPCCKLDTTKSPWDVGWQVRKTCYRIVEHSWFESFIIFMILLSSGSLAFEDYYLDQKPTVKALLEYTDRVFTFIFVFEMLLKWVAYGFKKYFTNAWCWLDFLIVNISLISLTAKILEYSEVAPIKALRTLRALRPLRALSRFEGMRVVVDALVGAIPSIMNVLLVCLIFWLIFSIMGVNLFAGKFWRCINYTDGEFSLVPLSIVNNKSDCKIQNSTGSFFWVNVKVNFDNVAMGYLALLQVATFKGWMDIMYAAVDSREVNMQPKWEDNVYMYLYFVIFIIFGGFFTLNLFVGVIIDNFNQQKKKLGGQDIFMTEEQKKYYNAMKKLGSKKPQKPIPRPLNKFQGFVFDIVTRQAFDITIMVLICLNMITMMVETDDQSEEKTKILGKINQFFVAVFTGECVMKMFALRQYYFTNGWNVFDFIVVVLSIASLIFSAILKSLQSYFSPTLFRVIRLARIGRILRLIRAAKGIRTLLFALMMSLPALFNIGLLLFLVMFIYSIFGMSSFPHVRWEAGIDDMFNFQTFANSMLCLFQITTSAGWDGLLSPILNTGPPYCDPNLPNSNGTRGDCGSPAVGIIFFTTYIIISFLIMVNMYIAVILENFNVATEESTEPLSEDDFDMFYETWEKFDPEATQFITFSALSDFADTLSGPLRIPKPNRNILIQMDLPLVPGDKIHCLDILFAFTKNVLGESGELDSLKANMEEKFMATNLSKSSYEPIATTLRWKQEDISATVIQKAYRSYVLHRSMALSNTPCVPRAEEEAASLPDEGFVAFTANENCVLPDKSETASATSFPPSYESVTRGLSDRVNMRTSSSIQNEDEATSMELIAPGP

First: CCOCCn1c(CN[C@@H](C)C(N)=O)nc2cc(Cl)c(-c3ccc(F)cc3F)cc21 [Example 179]
Second: CCOCCn1c(CN[C@@H](C)C(N)=O)nc2cc(Cl)c(-c3ccc(F)c(F)c3)cc21 [Example 180]
The inhibition at 12.5 µM of the first is higher: 67.4% for the first, 4.5% for the second.

`CCOCCn1c(CN[C@@H](C)C(N)=O)nc2cc(Cl)c(-c3ccc(OC(F)(F)F)cc3)cc21` [Example 181] and `CCOCCn1c(CN[C@@H](C)C(N)=O)nc2cc(Cl)c(-c3ccc(C(F)(F)F)cc3)cc21` [Example 182] are the same in inhibition at 12.5 µM: 0% for the first, 0% for the second.

Compared with `CCOCCn1c(CN[C@@H](C)C(N)=O)nc2cc(F)c(-c3ccc(F)c(F)c3)cc21` [Example 183], `CCOCCn1c(CN[C@@H](C)C(N)=O)nc2cc(F)c(-c3ccc(F)c(C)c3)cc21` [Example 188] is higher in inhibition at 12.5 µM: 72.3% for the first, 87% for the second.

Going from `CCOCCn1c(CN[C@@H](C)C(N)=O)nc2cc(F)c(-c3ccc(C)cc3)cc21` [Example 184] to `CCOCCn1c(CN[C@@H](C)C(N)=O)nc2cc(F)c(-c3ccc(Cl)cc3)cc21` [Example 186], the inhibition at 12.5 µM falls from 87.9% to 55.6%.

First: CCOCCn1c(CN[C@@H](C)C(N)=O)nc2cc(F)c(-c3ccccc3)cc21 [Example 185]
Second: CCOCCn1c(CN[C@@H](C)C(N)=O)nc2cc(F)c(-c3ccc(C)c(F)c3)cc21 [Example 189]
The inhibition at 12.5 µM of the first is lower: 64.6% for the first, 97.7% for the second.

First: CCn1c(CNC(C)(C)C(N)=O)nc2cc(F)c(-c3ccc(F)cc3)cc21 [Example 187]
Second: CCOCCn1c(CN[C@@H](C)C(N)=O)nc2cc(C)c(-c3ccc(F)c(F)c3)cc21 [Example 190]
The inhibition at 12.5 µM of the first is higher: 53.3% for the first, 34.3% for the second.

Compared with `CCOCCn1c(CN[C@@H](C)C(N)=O)nc2cc(-c3ccc(Cl)cc3)ccc21` [Example 191, N^2-{[5-(4-chlorophenyl)-1-(2-ethoxyethyl)-1H-benzimidazol-2-yl]methyl}-L-alaninamide hydrochloride], `CCOCCn1c(CN[C@@H](C)C(N)=O)nc2cc(-c3ccc(OC)cc3)ccc21` [Example 192, N^2-{[1-(2-ethoxyethyl)-5-(4-methoxyphenyl)-1H-benzimidazol-2-yl]methyl}-L-alaninamide trifluoroacetate] is lower in inhibition at 12.5 µM: 23.3% for the first, 11.9% for the second.

`CCOCCn1c(CN[C@@H](C)C(N)=O)nc2ccc(-c3ccc(C)cc3)nc21` [Example 209, N^2-{[3-(2-ethoxyethyl)-5-(4-methylphenyl)-3H-imidazo[4,5-b]pyridin-2-yl]methyl}-L-alaninamide hydrochloride] showed an inhibition at 12.5 µM of 6.5%.
